Test results taken from publication PMC8950706, “Influence of Substitutions in the Binding Motif of Proline-Rich Antimicrobial Peptide ARV-1502 on 70S Ribosome Binding and Antimicrobial Activity” (International Journal of Molecular Sciences, 2022).
Values after ≈ are worked out from the molar mass of the structure shown. Marks after values point to notes of the source that are not given here. Square brackets hold non-standard residues; d marks the D form. Peptide text beside a SMILES is read from it. Ac6c = NC1(C(=O)O)CCCCC1

Key:
E. coli BW25113 = assay: MIC, liquid broth micro dilution, wild type; assay type: cell-based, Escherichia coli; conditions: for MIC (µg/mL), Table 3: BW25113, 4 h; for Minimal Inhibitory Concentration, 25% MHB2, wt / Minimal Inhibitory Concentration, 33% TSB, wt: BW25113, 20 h
Description: (§1) MIC values were determined using a liquid broth micro dilution assay in sterile 96-well plates (polystyrene F-bottom, Greiner Bio-One GmbH) and a total volume of 100 μL per well. Aqueous peptide solutions (10 g/L) were serially twofold diluted in 25% Mueller-Hinton broth 2 (25% MBH2) or 33% tryptic soy broth (33% TSB) starting at a peptide concentration of 128 mg/L (50 μL/well). Overnight cultures of bacteria grown in 25% MHB2 (or 33% TSB) were diluted 30-fold in 25% MHB2 (or 33% TSB). After an incubation period of 4 h (37 °C, 200 rpm), cells were diluted to 1.5 × 10^7 cfu/mL, based on a McFarland test, and 50 μL were added to each well (final concentration of 7.5 × 10^6 […]). The plates were incubated (37 °C, 20 h) and the optical density was recorded at 595 nm using a microplate reader ([…]^TM, Beckmann Coulter). The MIC was defined as the lowest peptide concentration preventing visible bacterial growth.

[1] = test system: E. coli BW25113 ∆sbmA ∆mdtM; assay type: cell-based, Escherichia coli
Description: as §1

E. coli BW25113 ∆sbmA = assay type: cell-based, Escherichia coli; conditions: 20 h, at least duplicates on two days, * once on two days, ** duplicate on one day
Description: as §1

E. coli 70S ribosome [2] = assay: Competitive FP binding screening assay with Cf-ARV-1502 (relative FP); parameters: species or system E. coli BW25113; conditions: for Ribosome Binding (%): competitive ribosome binding against Cf-ARV-1502 (relative FP; values match 1.2 µmol/L peptide), low value = strong competition
Description: E. coli 70S ribosomes were prepared using a previously described protocol that was slightly modified. Briefly, E. coli BW25113 was cultivated in Luria-Bertani (LB) medium and cells were harvested after reaching an optical density of ~4 at 600 nm by centrifugation (5000× g, 15 min, 4 °C, Rotor JLA 8.100, Avanti J-20 XP, Beckmann Coulter, Krefeld, Germany). The cell pellets were frozen and stored at −80 °C. Cells were resuspended in ribosome buffer (2 mL/g cells; 20 mmol/L HEPES-KOH, 6 mmol/L MgCl2, 30 mmol/L NH4Cl, 4 mmol/L 2-mercaptoethanol, pH 7.6). Lysozyme (0.25 g/L cell suspension) was added, and the mixture was incubated on ice for 30 min. Cells were disrupted using the bead mill homogenizer FastPrep-24™ 5G (40 s, 4 m/s, 6 cycles, MP Biomedicals Germany GmbH, Eschwege, Germany) and zirconia/silica beads (0.1 mm diameter). The lysate was centrifuged (1500× g, 5 min, 4 °C, Rotor S4180, Allegra 21R, Beckmann Coulter) and the supernatant was incubated with DNase (5 U/mL) on ice for 60 min. The cell debris was removed by two centrifugation steps (16,000× g, 30 min, 4 °C followed by 32,000× g, 60 min, 4 °C, Rotor JA 30.50 Ti, Avanti J-30I, Beckmann Coulter). The ribosome was pelleted by ultracentrifugation (165,000× g, 17 h, 4 °C, Rotor 70 Ti, Optima LE-80K, Beckmann Coulter), resuspended in ribosome buffer (0.1 mL/g pellet), and stored at −80 °C. The ribosome concentration was determined by recording the absorbance of RNA at 260 nm (NanoPhotometer NP80, Implen GmbH, München, Germany) assuming that 1 AU corresponds to a ribosome concentration of 28 nmol/L. The molecular weight of the E. coli 70S ribosome was assumed to be 2.3 MDa.
E. coli 70S ribosomes and Cf-ARV-1502 were incubated with four different concentrations of unlabeled peptides chosen based on the IC50 curves of reference peptide ARV-1502. Each peptide was diluted in ribosome buffer to obtain a concentration of 4.8 µmol/L and transferred to a 384-well-plate. Peptides were then twofold serially diluted in four steps from 4.8 to 0.6 µmol/L (20 µL). The ribosome extract was diluted in ribosome buffer to reach a concentration of 2 µmol/L and 10 µL were added to each well to obtain a final ribosome concentration of 0.5 µmol/L. Plates were centrifuged (2 min, 500× g, Rotor S2096, Allegra^TM 21R, Beckmann Coulter) and incubated at 28 °C for 90 min. Cf-labeled ARV-1502 was added (10 µL; final concentration of 20 nmol/L) and the plates were again centrifuged and incubated (28 °C, 90 min). After incubation, fluorescence polarization was recorded on a […]^TM microplate reader (λex = 485 nm, λem = 535 nm).
On each plate 12 minimum (30 µL ribosome buffer and 10 µL Cf-ARV-1502) and 12 maximum (20 µL ribosome buffer, 10 µL ribosome solution and 10 µL Cf-ARV-1502) control samples were added. Fluorescence polarization of screening samples was normalized to the fluorescence polarization of these control samples. All screening samples were measured in triplicates and the whole experiment was repeated once on another day.

E. coli 70S ribosome [3] = assay: Cell-free GFP expression assay (in vitro translation); assay type: biochemical; conditions: for In Vitro Translation (%): GFP expression remaining relative to control, concentration not given (higher concentration 50 µmol/L)
Description: Possible effects of ARV-1502 and its substituted analogs on the in vitro translation of the green fluorescent protein (GFP) were probed using the NEB PureExpress Delta RF123 Kit (New England Biolabs, Ipswich, MA, USA). The sfGFP DNA template was amplified from pY71sfGFP plasmid by PCR introducing an UAA stop codon. Release factor 1 (RF1) was 50fold diluted in Pure System Buffer (PSB) containing magnesium acetate (1 mol/L), monopotassium phosphate (0.5 mol/L, pH 7.3), potassium glutamate (1 mol/L), NH4Cl (1 mol/L), calcium chloride (0.5 mol/L), spermidine (1 mol/L), putrescine (0.1 mol/L), and DTT (0.1 mol/L). Each reaction used 35 ng of sfGFP template. Peptides were added at a final concentration of 5 µmol/L and 50 µmol/L. The reaction was started by adding Kit solutions A (2 µL) and B (1.5 µL), diluted RF1 (0.5 µL), sfGFP template (0.25 µL or water as negative control), PSB (0.25 µL), and peptide (0.5 µL or water), mixed, transferred into a black 384-well plate (flat bottom, Greiner Bio-One GmbH), and incubated (37 °C, 2 h). The fluorescence was recorded every 10 min (λexc = 485 nm, λem = 535 nm) in a microplate reader (Gemini EM, Molecular Devices LLC, San Jose, CA, USA).

Structure (SMILES)	MIC (µg/mL), Table 3 (E. coli BW25113)	Minimal Inhibitory Concentration, 25% MHB2, wt (E. coli BW25113)	Minimal Inhibitory Concentration, 33% TSB, wt (E. coli BW25113)	MIC / activity against E. coli (E. coli BW25113; medium not given)	Minimal Inhibitory Concentration, 25% MHB2, ∆sbmA ∆mdtM ([1]; 25% MHB2, 37 °C, 20 h, at least duplicates on two days, * once on two days, ** duplicate on one day)	Minimal Inhibitory Concentration, 33% TSB, ∆sbmA ∆mdtM ([1]; 33% TSB, 37 °C, 20 h, at least duplicates on two days, * once on two days, ** duplicate on one day)	Minimal Inhibitory Concentration, 25% MHB2, ∆sbmA (E. coli BW25113 ∆sbmA; 25% MHB2, 37 °C)	Minimal Inhibitory Concentration, 33% TSB, ∆sbmA (E. coli BW25113 ∆sbmA; 33% TSB, 37 °C)	Inhibition of Cf-ARV-1502 binding to the 70S ribosome (in words) (E. coli 70S ribosome [2]; Figure 3: peptide concentration 1.2 µmol/L)	Ribosome Binding (%) (E. coli 70S ribosome [2])	In Vitro Translation (%) (E. coli 70S ribosome [3])	Effect of the additional mdtM knockout on antibacterial activity ([1]; ∆sbmA ∆mdtM compared with ∆sbmA)	Reduction of GFP expression, 50 µmol/L peptide (E. coli 70S ribosome [3]; cell-free expression, peptide-to-ribosome ratio of 25, GFP fluorescence, 37 °C)
CC(C)C[C@H](NC(=O)[C@H](Cc1ccc(O)cc1)NC(=O)[C@@H]1CCCN1C(=O)[C@H](CCCNC(=N)N)NC(=O)[C@@H]1CCCN1C(=O)[C@H](CC(=O)O)NC(=O)[C@H](CO)NC(=O)[C@@H]1CCCN1C(=O)[C@H](CCCNC(=N)N)NC(=O)C1(N)CCCCC1)C(=O)N1CCC[C@H]1C(=O)N[C@@H](CCCNC(=N)N)C(=O)N1CCC[C@H]1C(=O)N[C@@H](CCCNC(=N)N)C(=O)N1CCC[C@H]1C(=O)N1CCC[C@H]1C(=O)N[C@@H](CCCNC(=N)N)C(=O)N1CCC[C@H]1C(=O)N[C@H](C(=O)N[C@@H](CCCNC(=N)N)C(N)=O)C(C)C [Peptide 50] (H-[Ac6c]RPSDPRPYLPRPRPPRPVR-NH2)	128 µg/mL (≈ 52.6 µM)	128 µg/mL	64 µg/mL	low activity against E. coli	>128 µg/mL	>128 µg/mL	>128 µg/mL	>128 µg/mL	inhibited Cf-ARV-1502	67.9 ± 4.8%	113.7 ± 9.1%		
CC(C)[C@H](NC(=O)[C@@H]1CCCN1C(=O)[C@H](CCCNC(=N)N)NC(=O)[C@@H]1CCCN1C(=O)[C@@H]1CCCN1C(=O)[C@H](CCCNC(=N)N)NC(=O)[C@@H]1CCCN1C(=O)[C@H](CCCNC(=N)N)NC(=O)[C@@H]1CCCN1C(=O)[C@H](Cc1ccccc1)NC(=O)[C@H](Cc1ccc(O)cc1)NC(=O)[C@@H]1CCCN1C(=O)[C@H](CCCNC(=N)N)NC(=O)[C@@H]1CCCN1C(=O)[C@H](Cc1ccccc1)NC(=O)[C@H](Cc1ccccc1)NC(=O)[C@@H]1CCCN1C(=O)[C@H](CCCNC(=N)N)NC(=O)C1(N)CCCCC1)C(=O)N[C@@H](CCCNC(=N)N)C(N)=O [Peptide 96] (H-[Ac6c]RPFFPRPYFPRPRPPRPVR-NH2; N-terminus and C-terminus assumed)	16 µg/mL (≈ 6.25 µM)	16 µg/mL	32 * µg/mL							62.9 ± 4.8%	77.2 ± 1.9%	no effect	~ 25%
